Assay results taken from ChEMBL document CHEMBL5725750, “Bifunctional compounds and use for reducing uric acid levels” (2018).
pIC50: −log10 of the molar value.

Target: Xanthine dehydrogenase/oxidase (Homo sapiens, UniProt P47989)
Experiment: xanthine oxidase activity: Xanthine oxidase inhibition was determined using a standard fluorescence-based assay for xanthine oxidase activity (McHale A, Grimes H, Coughlan M P: Int J Biochem. 10:317-9, 1979) with minor variations. […] Experiments on test compounds were performed in triplicate in multi-well plates using 10 concentrations of each compound that ranged over a 3-fold dilution.

Sequence of Xanthine dehydrogenase/oxidase (P47989 whole entry): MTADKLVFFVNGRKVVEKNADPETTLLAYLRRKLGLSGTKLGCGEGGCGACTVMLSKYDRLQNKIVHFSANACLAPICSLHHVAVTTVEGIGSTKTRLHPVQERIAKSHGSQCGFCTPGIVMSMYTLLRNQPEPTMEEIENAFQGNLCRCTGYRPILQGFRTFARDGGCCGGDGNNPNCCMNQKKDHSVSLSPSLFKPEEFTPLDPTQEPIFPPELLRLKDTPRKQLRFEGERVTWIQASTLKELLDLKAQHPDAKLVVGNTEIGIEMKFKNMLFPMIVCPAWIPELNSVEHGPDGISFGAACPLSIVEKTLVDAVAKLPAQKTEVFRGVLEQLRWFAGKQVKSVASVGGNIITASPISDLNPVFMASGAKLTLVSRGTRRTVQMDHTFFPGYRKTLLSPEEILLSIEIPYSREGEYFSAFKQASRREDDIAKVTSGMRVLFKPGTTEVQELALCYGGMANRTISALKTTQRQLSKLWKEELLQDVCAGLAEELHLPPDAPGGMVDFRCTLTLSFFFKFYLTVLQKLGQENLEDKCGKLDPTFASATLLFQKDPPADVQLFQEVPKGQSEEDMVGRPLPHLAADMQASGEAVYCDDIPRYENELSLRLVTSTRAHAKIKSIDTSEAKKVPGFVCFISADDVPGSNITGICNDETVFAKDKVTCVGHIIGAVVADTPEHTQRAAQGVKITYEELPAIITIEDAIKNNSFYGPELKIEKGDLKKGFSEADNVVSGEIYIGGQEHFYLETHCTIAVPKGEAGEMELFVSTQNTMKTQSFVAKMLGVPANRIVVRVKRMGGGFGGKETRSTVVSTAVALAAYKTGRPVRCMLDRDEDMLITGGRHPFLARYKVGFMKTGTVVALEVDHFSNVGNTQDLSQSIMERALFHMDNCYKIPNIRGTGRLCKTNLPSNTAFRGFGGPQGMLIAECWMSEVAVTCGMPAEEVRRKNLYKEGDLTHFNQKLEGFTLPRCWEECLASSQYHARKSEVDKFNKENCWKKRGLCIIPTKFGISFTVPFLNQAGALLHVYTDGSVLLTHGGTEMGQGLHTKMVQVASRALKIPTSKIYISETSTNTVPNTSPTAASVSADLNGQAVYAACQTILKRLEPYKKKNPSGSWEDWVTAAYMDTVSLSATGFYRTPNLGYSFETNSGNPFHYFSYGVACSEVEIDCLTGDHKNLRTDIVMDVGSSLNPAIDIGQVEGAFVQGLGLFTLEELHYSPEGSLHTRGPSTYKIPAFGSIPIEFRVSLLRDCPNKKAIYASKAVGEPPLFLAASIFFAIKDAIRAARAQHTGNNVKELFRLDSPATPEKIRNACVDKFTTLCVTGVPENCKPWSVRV

In the case of `O=C(O)CSc1nnc(Br)n1-c1ccc(C2CC2)c2ccccc12`, the pIC50 was < 3.52.
